Measurements from ChEMBL document CHEMBL1681651, “A broad spectrum anticancer nucleoside with selective toxicity against human colon cells in vitro” (2011).

Legend:
Type in all cases: functional
NCI-H226 [1] = assay: Growth inhibition of human NCI-H226 cells assessed as cell growth at 10 uM after 48 hrs by SRB assay; conditions: NCI-H226, 48 h, read-out: Activity
SNB-19 = assay: Growth inhibition of human SNB19 cells assessed as cell growth at 1 uM after 48 hrs by SRB assay; conditions: SNB-19, 48 h, read-out: Activity
NCI-H226 [2] = assay: Growth inhibition of human NCI-H226 cells assessed as cell growth at 1 mM after 48 hrs by SRB assay; conditions: NCI-H226, 48 h, read-out: Activity
U-251 = assay: Growth inhibition of human U251 cells assessed as cell growth at 1 mM after 48 hrs by SRB assay; conditions: U-251, 48 h, read-out: Activity
A498 = assay: Growth inhibition of human A498 cells after 48 hrs by […] growth inhibition assay; conditions: A498, 48 h
SF-268 [3] = assay: Growth inhibition of human SF268 cells assessed as cell growth at 100 uM after 48 hrs by SRB assay; conditions: SF-268, 48 h, read-out: Activity
Malme-3M = assay: Growth inhibition of human MALME-3M cells after 48 hrs by […] growth inhibition assay
CCRF-CEM = assay: Growth inhibition of human CCRF-CEM cells assessed as cell growth at 1 uM after 48 hrs by SRB assay; conditions: read-out: Activity
NCI-H522 = assay: Growth inhibition of human NCI-H522 cells after 48 hrs by […] growth inhibition assay; conditions: NCI-H522, 48 h
UO-31 [4] = assay: Growth inhibition of human UO31 cells after 48 hrs by […] growth inhibition assay; conditions: UO-31, 48 h
UACC-257 = assay: Growth inhibition of human UACC257 cells assessed as cell growth at 100 uM after 48 hrs by SRB assay; conditions: UACC-257, 48 h, read-out: Activity
[5] = Growth inhibition of human […] cells after 48 hrs by […] growth inhibition assay
SF-539 = assay: Growth inhibition of human SF539 cells assessed as cell growth at 0.1 uM after 48 hrs by SRB assay; conditions: SF-539, 48 h, read-out: Activity
HT-29 = assay: Growth inhibition of human HT-29 cells assessed as cell growth at 100 uM after 48 hrs by SRB assay; conditions: HT-29, 48 h, read-out: Activity
UO-31 [6] = assay: Growth inhibition of human UO31 cells assessed as cell growth at 100 uM after 48 hrs by SRB assay; conditions: UO-31, 48 h, read-out: Activity
IGROV-1 = assay: Growth inhibition of human IGROV1 cells assessed as cell growth at 0.1 uM after 48 hrs by SRB assay; conditions: IGROV-1, 48 h, read-out: Activity
MDA-MB-231 [7] = assay: Growth inhibition of human MDA-MB-231 cells assessed as cell growth at 10 uM after 48 hrs by SRB assay; conditions: MDA-MB-231, 48 h, read-out: Activity
HCT-15 = assay: Growth inhibition of human HCT15 cells assessed as cell growth at 0.1 uM after 48 hrs by SRB assay; conditions: HCT-15, 48 h, read-out: Activity
A549 = assay: Growth inhibition of human A549 cells assessed as cell growth at 100 uM after 48 hrs by SRB assay; conditions: A549, 48 h, read-out: Activity
KM12 [8] = assay: Growth inhibition of human KM12 cells assessed as cell growth at 100 uM after 48 hrs by SRB assay; conditions: KM12, 48 h, read-out: Activity
M14 = assay: Growth inhibition of human M14 cells assessed as cell growth at 10 uM after 48 hrs by SRB assay; conditions: M14, 48 h, read-out: Activity
KM12 [9] = assay: Growth inhibition of human KM12 cells assessed as cell growth at 1 uM after 48 hrs by SRB assay; conditions: KM12, 48 h, read-out: Activity
SF-268 [10] = assay: Growth inhibition of human SF268 cells assessed as cell growth at 1 uM after 48 hrs by SRB assay; conditions: SF-268, 48 h, read-out: Activity
RXF 393 = assay: Growth inhibition of human RXF393 cells assessed as cell growth at 1 uM after 48 hrs by SRB assay; conditions: RXF 393, 48 h, read-out: Activity
KM12 [11] = assay: Growth inhibition of human KM12 cells after 48 hrs by […] growth inhibition assay; conditions: KM12, 48 h
MDA-MB-231 [12] = assay: Growth inhibition of human MDA-MB-231 cells assessed as cell growth at 0.1 uM after 48 hrs by SRB assay; conditions: MDA-MB-231, 48 h, read-out: Activity
EKVX = assay: Growth inhibition of human EKVX cells assessed as cell growth at 0.1 uM after 48 hrs by SRB assay; conditions: read-out: Activity
SF-295 [13] = assay: Growth inhibition of human SF295 cells after 48 hrs by […] growth inhibition assay; conditions: SF-295, 48 h
KM12 [14] = assay: Growth inhibition of human KM12 cells assessed as cell growth at 1 mM after 48 hrs by SRB assay; conditions: KM12, 48 h, read-out: Activity
SK-MEL-2 = assay: Growth inhibition of human SK-MEL-2 cells assessed as cell growth at 1 uM after 48 hrs by SRB assay; conditions: SK-MEL-2, 48 h, read-out: Activity
SK-MEL-5 = assay: Growth inhibition of human SK-MEL-5 cells assessed as cell growth at 10 uM after 48 hrs by SRB assay; conditions: SK-MEL-5, 48 h, read-out: Activity
OVCAR-4 = assay: Growth inhibition of human OVCAR4 cells assessed as cell growth at 1 uM after 48 hrs by SRB assay; conditions: OVCAR-4, 48 h, read-out: Activity
SF-295 [15] = assay: Growth inhibition of human SF295 cells assessed as cell growth at 1 uM after 48 hrs by SRB assay; conditions: SF-295, 48 h, read-out: Activity
[16] = read-out: LC50 (the source's name)
[17] = read-out: pLC50 (the source's name) (converted)

CNC(=O)NC[C@H]1O[C@@H](n2cnc3c(NC(=O)Nc4ccccc4)ncnc32)[C@H](O[Si](C)(C)C(C)(C)C)[C@@H]1CC(=O)N(C)OC
growth at 10 µM (NCI-H226 [1]): 99% | growth at 1 µM (SNB-19): 93% | growth at 1000 µM (NCI-H226 [2]): 40% | growth at 1000 µM (U-251): 25% | GI50 (A498; read-out: GI50): 3.87 µM | CC50 (A498; [16]): > 100 µM | TGI (A498; read-out: TGI): 40.3 µM | GI50 (A498; read-out: pGI50 (converted)): 3.89 µM | CC50 (A498; [17]): > 100 µM | TGI (A498; read-out: pTGI (converted)): 40.7 µM | growth at 100 µM (SF-268 [3]): 46% | GI50 (Malme-3M; read-out: GI50): 11.4 µM | LC50 (concentration killing 50% of cells) (Malme-3M; read-out: LC50): > 100 µM | TGI (Malme-3M; read-out: TGI): > 100 µM | GI50 (Malme-3M; read-out: pGI50 (converted)): 11.5 µM | LC50 (concentration killing 50% of cells) (Malme-3M; read-out: pLC50 (converted)): > 100 µM | TGI (Malme-3M; read-out: pTGI (converted)): > 100 µM | growth at 1 µM (CCRF-CEM): 100% | GI50 (NCI-H522; read-out: GI50): 11.1 µM | CC50 (NCI-H522; [16]): > 100 µM | TGI (NCI-H522; read-out: TGI): > 100 µM | GI50 (NCI-H522; read-out: pGI50 (converted)): 11 µM | CC50 (NCI-H522; [17]): > 100 µM | TGI (NCI-H522; read-out: pTGI (converted)): > 100 µM | GI50 (UO-31 [4]; read-out: GI50): 7.79 µM | CC50 (UO-31 [4]; [16]): > 100 µM | TGI (UO-31 [4]; read-out: TGI): > 100 µM | GI50 (UO-31 [4]; read-out: pGI50 (converted)): 7.76 µM | CC50 (UO-31 [4]; [17]): > 100 µM | TGI (UO-31 [4]; read-out: pTGI (converted)): > 100 µM | growth at 100 µM (UACC-257): 65% | GI50 ([5]; read-out: GI50): 1.58 µM | CC50 [5, 16]: > 100 µM | TGI ([5]; read-out: TGI): 5.4 µM | GI50 ([5]; read-out: pGI50 (converted)): 1.58 µM | CC50 [5, 17]: > 100 µM | TGI ([5]; read-out: pTGI (converted)): 5.37 µM | growth at 0.1 µM (SF-539): 96% | growth at 100 µM (HT-29): 32% | growth at 100 µM (UO-31 [6]): 46% | growth at 0.1 µM (IGROV-1): 89% | growth at 10 µM (MDA-MB-231 [7]): 94% | growth at 0.1 µM (HCT-15): 96% | growth at 100 µM (A549): 49% | growth at 100 µM (KM12 [8]): 62% | growth at 10 µM (M14): 91% | growth at 1 µM (KM12 [9]): 108% | growth at 1 µM (SF-268 [10]): 105% | growth at 1 µM (RXF 393): 100% | GI50 (KM12 [11]; read-out: GI50): 23.9 µM | CC50 (KM12 [11]; [16]): > 100 µM | TGI (KM12 [11]; read-out: TGI): > 100 µM | GI50 (KM12 [11]; read-out: pGI50 (converted)): 24 µM | CC50 (KM12 [11]; [17]): > 100 µM | TGI (KM12 [11]; read-out: pTGI (converted)): > 100 µM | growth at 0.1 µM (MDA-MB-231 [12]): 97% | growth at 0.1 µM (EKVX): 94% | GI50 (SF-295 [13]; read-out: GI50): 9.09 µM | LC50 (SF-295 [13]; read-out: LC50): 16.4 µM | TGI (SF-295 [13]; read-out: TGI): > 100 µM | GI50 (SF-295 [13]; read-out: pGI50 (converted)): 9.12 µM | LC50 (SF-295 [13]; read-out: pLC50 (converted)): > 100 µM | TGI (SF-295 [13]; read-out: pTGI (converted)): > 100 µM | growth at 1000 µM (KM12 [14]): 30% | growth at 1 µM (SK-MEL-2): 83% | growth at 10 µM (SK-MEL-5): 89% | growth at 1 µM (OVCAR-4): 100% | growth at 1 µM (SF-295 [15]): 93%
